These results are taken from patent publication US7863324B2, “Chroman-derived compounds for the treatment of cancer” (Wisconsin Alumni Research Foundation, priority 2003, dated 2011).

Where “and” joins values, the source holds several entries; their conditions need not be identical. Identical values can stand only once. Entries after “also recorded” stand apart in the source; their conditions may differ. Like-named read-outs stand apart in the source and are kept apart here.

Data set [1] concerns androgen receptor protein levels in LNCaP cells. Particulars: cited from earlier work.
The subject of data set [2] is LNCaP cells. Put plainly: Cell growth analysis (Hoechst DNA assay), LNCaP. Format: cell-based, human. Particulars: 4 d. The procedure:
(§1) Cell growth and viability analyses. Five thousand LNCaP or LAPC4 cells were plated in each well of 96-well plates (Costar) in 100 μl of DMEM/CSS. Two to 3 d after plating, cells were treated by adding 100 μl of DMEM/CSS containing 2× the concentration of the specified treatment to each well. Four d after treatment, the relative cell number was estimated by the determining DNA concentration of each well using a Hoechst-based fluorescence DNA assay, as previously described (23). Growth analysis with DU145 cells was performed similar to those with LNCaP and LAPC4 cells except DUI45 cells were initially seeded at 500 cells per well. Cell viability was determined by trypan blue exclusion and quantified by light microscopic analysis using a hemacytometer.

Data set [3] relates to PSA secretion from LNCaP cells. Put plainly: Androgen-induced PSA secretion from LNCaP cells. In kind it is cell-based, human. Particulars: 48 h. The procedure: Determination of secreted PSA levels. LNCaP cells were cultured in 96 well plates (Costar) at 5,000 cells per well in DMEM/CSS 1 d before treatment. Forty-eight h after treatment, PSA levels in cell culture media were determined using the Tandem-MP PSA kit (Beckman Coulter, Inc.) according to manufacturer's instructions. PSA levels were normalized to DNA levels as determined using a Hoechst-based fluorescence DNA assay (23).

In data set [4] the test system is MMTV promoter activity in LNCaP cells. Put plainly: Androgen-stimulated MMTV promoter luciferase reporter assay, LNCaP. Particulars: for decrease of R1881-induced luciferase expression: 24 h. In kind it is cell-based, human. The protocol: (§2) Androgen-stimulated promoter reporter assay analysis. LNCaP and LAPC4 prostate carcinoma cell lines were cultured in 12-well cell culture plates (Costar) in DMEM/CSS 2 to 3 d before transfection. Androgen-induced trancriptional activation was determined using a reporter construct with an MMTV promoter that regulates the expression of luciferase (24). LNCaP and LAPC4 cells were transfected with the MMTV/luciferase plasmid using the Effectene Transfection Reagent (Qiagen Inc., Valencia, Calif.), according to the manufacturer's instructions. Twenty-four h after transfection, cells were treated with R1881 with or without test reagents at the specified concentrations. Cell extracts were acquired 24 to 48 h after treatment by removing medium, washing 1× with PBS, and obtaining extract with 200 μL of 1× Reporter Lysis Buffer (Promega, Madison, Wis.). Luciferase activity was determined as previously described (24).
Background: A reporter such as luciferase makes a cellular process visible.

Data set [5] has as its system MMTV promoter activity in LAPC4 cells. Put plainly: Androgen-stimulated MMTV promoter luciferase reporter assay, LAPC4. Format: cell-based, human. The protocol:
as §2

Data set [6] addresses T1, androgen receptor in LNCaP cells (functional mutant AR) (Homo sapiens, UniProt P10275, T878A).
T1 construct: host or cells: LNCaP
T1 sequence (P10275 1-920 T878A): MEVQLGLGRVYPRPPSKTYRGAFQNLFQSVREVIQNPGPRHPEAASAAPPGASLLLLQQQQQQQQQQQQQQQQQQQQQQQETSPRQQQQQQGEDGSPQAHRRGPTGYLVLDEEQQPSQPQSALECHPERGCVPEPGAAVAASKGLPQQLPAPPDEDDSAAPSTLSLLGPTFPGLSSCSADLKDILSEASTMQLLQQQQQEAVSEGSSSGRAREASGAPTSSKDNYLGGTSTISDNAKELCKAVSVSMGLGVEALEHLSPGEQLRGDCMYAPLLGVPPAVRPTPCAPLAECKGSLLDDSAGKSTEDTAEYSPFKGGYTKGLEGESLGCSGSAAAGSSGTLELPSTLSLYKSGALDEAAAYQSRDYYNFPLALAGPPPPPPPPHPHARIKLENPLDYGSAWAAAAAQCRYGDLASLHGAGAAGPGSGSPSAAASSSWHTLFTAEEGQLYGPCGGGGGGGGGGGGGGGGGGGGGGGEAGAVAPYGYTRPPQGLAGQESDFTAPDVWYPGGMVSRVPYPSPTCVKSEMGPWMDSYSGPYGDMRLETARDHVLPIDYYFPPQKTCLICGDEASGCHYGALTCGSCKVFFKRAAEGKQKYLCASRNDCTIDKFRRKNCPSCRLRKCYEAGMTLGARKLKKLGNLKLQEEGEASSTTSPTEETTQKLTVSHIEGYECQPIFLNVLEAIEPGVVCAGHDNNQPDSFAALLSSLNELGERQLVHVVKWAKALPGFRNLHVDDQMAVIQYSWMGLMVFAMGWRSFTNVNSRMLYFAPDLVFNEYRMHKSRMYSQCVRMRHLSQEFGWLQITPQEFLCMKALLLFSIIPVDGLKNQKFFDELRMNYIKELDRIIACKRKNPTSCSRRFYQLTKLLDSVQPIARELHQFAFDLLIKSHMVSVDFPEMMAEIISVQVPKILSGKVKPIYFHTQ
Put plainly: Androgen receptor binding competition assay (3H-R1881) in LNCaP cells. The procedure: (§3) Androgen receptor binding competition assay. An androgen receptor binding competition assay was performed as previously described (22). LNCaP or LAPC4 prostate carcinoma cells were plated in 12-well tissue culture dishes (Costar, Corning, N.Y.) at 3.0×10^5 cells per well in phenol-red free DMEM/CSS 3 d prior to analysis. For competitor analysis, DMEM/CSS was removed by aspiration and replaced with 1 mL of phenol-red free DMEM containing 1 nM ^3H-R1881, 1 μM triamcinolone acetonide, and competitor at the specified concentrations for 2 h at 37° C. in a 5% CO2 incubator. […] Cells were washed twice with 1 mL phenol red-free DMEM and placed in 8.0 mL of ScintiVerse II Scintillation Cocktail (Fisher Scientific, Pittsburgh, Pa.) for determination of radioactivity (i.e., dpm) using a Beckman LS 6000TA Liquid Scintillation System (Beckman Instruments Inc., Fullerton, Calif.).

Data set [7] deals with AR protein levels in LNCaP cells. Put plainly: Immunoblot analysis of AR protein levels. Format: cell-based, human. Particulars: 30 μM compound, 5 d, medium with 5% serum. The procedure:
Immunoblot analysis of AR protein levels. LNCaP cells were plated at a density of 1×10^6 cells per 100 mm cell culture plate in 10 ml of DMEM/FBS and maintained in incubators at 37° C. in 5% CO2. […] Membranes were then incubated with a secondary horseradish peroxidase-conjugated anti-mouse antibody (Amersham Pharmacia Biotech, Piscataway, N.J.) and analyzed using the Enhanced Chemiluminescence Plus reagent (Amersham Pharmacia Biotech). Autoradiograms were prepared by exposing the blots to BioMax Light X-ray film (Eastman Kodak Co., Rochester, N.Y.) and developed using a CURIX 60 CP Processor (Agfa, Ridgefield Park, N.J.).
Background: A western blot detects proteins with antibodies after separation by electrophoresis.

The conditions of data set [8]: general statement; cited from earlier work.
The target of data set [9] is androgen receptor in LAPC4 cells (normal human AR) (Homo sapiens, UniProt P10275). Put plainly: Androgen receptor binding competition assay (3H-R1881) in LAPC4 cells. The protocol:
as §3

Data set [10] has as its system LAPC4 cells. Put plainly: Cell growth analysis (Hoechst DNA assay), LAPC4. Format: cell-based, human. Particulars: medium with 5% serum, 4 d. The protocol: as §1
How the values of data set [11] were obtained: The oral toxicity of PMCol was determined in 6 month-old male FVB mice. A single high oral dose of 1000 mg/kg PMCol in sesame oil was administered to 4 mice by gavage. Four control mice received only sesame oil by gavage (vehicle control). […] In a second study, four 6 month-old male FVB mice received 200 mg/kg PMCol daily in sesame oil by gavage for 10 days. Three mice receiving only sesame oil (vehicle control) were used as controls. Body weights were determined daily and all mice were autopsied to examine gross organ changes on day 11.

The nature of data set [12]: Water solubility. Particulars: cell culture studies. Format: physicochemical.

By IC50 is commonly meant the concentration at which inhibition is half-maximal. A word on the inhibition: it is the percentage by which the read-out fell short of the control.

androgen receptor in LAPC4 cells (normal human AR), sequence (P10275 whole entry): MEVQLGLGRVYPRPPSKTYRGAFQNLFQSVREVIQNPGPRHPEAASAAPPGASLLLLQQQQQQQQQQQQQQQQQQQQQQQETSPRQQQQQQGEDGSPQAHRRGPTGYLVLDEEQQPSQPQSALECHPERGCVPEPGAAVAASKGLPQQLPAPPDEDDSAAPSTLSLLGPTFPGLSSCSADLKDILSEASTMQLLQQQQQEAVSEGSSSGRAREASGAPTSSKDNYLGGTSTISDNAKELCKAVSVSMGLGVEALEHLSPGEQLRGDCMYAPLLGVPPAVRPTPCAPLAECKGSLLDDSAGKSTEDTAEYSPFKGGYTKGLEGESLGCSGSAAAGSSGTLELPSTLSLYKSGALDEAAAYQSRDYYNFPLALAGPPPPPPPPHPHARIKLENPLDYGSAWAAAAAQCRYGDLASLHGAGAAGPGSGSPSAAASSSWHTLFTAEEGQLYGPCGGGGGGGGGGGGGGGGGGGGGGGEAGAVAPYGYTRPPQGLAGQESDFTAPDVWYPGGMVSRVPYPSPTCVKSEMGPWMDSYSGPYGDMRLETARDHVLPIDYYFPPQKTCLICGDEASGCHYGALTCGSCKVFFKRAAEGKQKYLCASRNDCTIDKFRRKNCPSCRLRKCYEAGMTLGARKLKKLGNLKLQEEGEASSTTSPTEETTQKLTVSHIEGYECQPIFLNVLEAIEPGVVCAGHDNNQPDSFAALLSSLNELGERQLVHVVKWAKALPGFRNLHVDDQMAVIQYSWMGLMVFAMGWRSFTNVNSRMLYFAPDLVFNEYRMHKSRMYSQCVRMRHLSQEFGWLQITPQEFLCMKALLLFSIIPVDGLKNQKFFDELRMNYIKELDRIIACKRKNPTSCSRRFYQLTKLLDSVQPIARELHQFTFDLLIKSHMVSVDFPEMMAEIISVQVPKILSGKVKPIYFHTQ

With `COc1cc(/C=C/C(=O)CC(=O)/C=C/c2ccc(O)c(OC)c2)ccc1O` [curcumin], in [1], the “effect on AR protein levels” value is “down-regulate androgen receptor protein levels”.
For `CC(O)(CS(=O)(=O)c1ccc(F)cc1)C(=O)Nc1ccc(C#N)c(C(F)(F)F)c1` (stereo not shown) [bicalutamide, reference compound], the “R1881 concentration giving in control cells the growth response equivalent to that at 0.3 nM R1881 under treatment” value (shortened to “R1881 concentration giving”) in data set [2] (LNCaP, 1 μM compound) was 0.03 nM. Further, the “decrease of R1881-stimulated PSA levels” value in data set [3] (1.0 nM R1881, 1 μM compound) stood at 43%. Further, the “decrease of R1881-stimulated luciferase expression” value is “approximately 50%” in [4] (1.0 nM R1881, 1 μM compound) and “approximately 50%” in [5] (1.0 nM R1881, 1 μM compound).
Turning to `Cc1cc(C)c2c(c1C)OC(C)(C)CC2` [PMC, 2,2,5,7,8-pentamethylchroman, reference compound], the “anti-androgenic activity in 3H-R1881 competition compared with PMCol” value in data set [6] (LNCaP cells, FIG. 2A) is “less anti-androgenic activity than PMCol”. The “shift of R1881-stimulated biphasic LNCaP growth curve” value in data set [2] (30 μM compound) is recorded as “more modest, but significant, shift to the right”. Further, the “R1881 concentration giving” value in [2] (LNCaP, 30 μM compound) was 0.03 nM. Further, the “decrease of R1881-stimulated PSA levels” value in data set [3] (1.0 nM R1881, 30 μM compound) came out at 20%. Moreover, the AR protein levels result in data set [7] is given as “did not result in altered AR protein levels; also recorded: not significantly altered”.
As to `Cc1c(C)c2c(c(C)c1O)CC[C@@](C)(CCC[C@H](C)CCC[C@H](C)CCCC(C)C)O2` [vitamin E, α-tocopherol], in data set [8], the solubility in water result is given as “practically insoluble in water”.
Regarding `Cc1c(C)c2c(c(C)c1O)CCC(C)(C)O2` [PMCol, 2,2,5,7,8-pentamethyl-6-chromanol], the “potency at competing for 3H-R1881 relative to bicalutamide (fold less potent)” value in data set [6] (LNCaP cells) is recorded as “approximately 10 fold”. Also, the IC50 is ~10 µM and 7.2 µM in data set [6] (LNCaP cells, against 1 nM 3H-R1881, estimated (FIG. 2A), read-out: IC50 for competition of 3H-R1881 binding); 5 to 15 µM in data set [6] (repeated studies, data not shown, read-out: IC50 values, repeated studies of competition for 3H-R1881 binding); around 10 µM in [9] (against 1 nM R1881). In addition, the “decrease in 3H-R1881 binding” value in data set [9] (30 μM compound) is on record as 75%. Further, the “LNCaP cell growth in presence of growth inhibitory R1881” value in [2] (1.0 nM R1881, 10 μM to 30 μM compound) is reported as “significant stimulation”. For the same compound, in data set [2] (30 μM compound), the “shift of R1881-stimulated biphasic LNCaP growth curve” value is recorded as “shifted to the right”. Also, in data set [2] (LNCaP, 0.1 nM R1881), the “concentration significantly inhibiting R1881-stimulated LNCaP growth” value was at least 10 µM. The “R1881 concentration giving” value in data set [2] (LNCaP, 30 μM compound) was found to be 0.03 nM. Moreover, the “concentration at which LNCaP cell growth was decreased” value in [2] (LNCaP, FIG. 3B) is at least 40 µM. For the same compound, the “growth modulatory (AR agonist) activity in androgen-deficient media” value in data set [2] (LNCaP, no R1881, 10 μM to 30 μM) was “no growth modulatory activity”. Besides, the “concentration required to significantly reduce cell growth” value in [10] is at least 60 µM. The “inhibition of R1881-stimulated PSA release” value in [3] (0.05 nM R1881, 30 μM compound) is listed as “completely inhibited”. Further, the “decrease of R1881-stimulated PSA levels” value in data set [3] (1.0 nM R1881, 30 μM compound) was 80% and 81%. The “PSA release from LNCaP cells, compound alone” value in data set [3] (30 μM, no R1881) is listed as “not affected”. Moreover, the inhibition at 30 µM in [3] (Homo sapiens, LNCaP, 0.05 nM R1881, 30 μM compound, read-out: inhibition of R1881-stimulated PSA release) is 100%. Also, the “decrease of R1881-induced luciferase expression” value is 50% in data set [4] (1.0 nM R1881, 25 μM compound) and 70% in data set [4] (1.0 nM R1881, 50 μM compound). Moreover, the “MMTV promoter activity, compound alone” value in data set [4] (no R1881) is “no effect”. Besides, the AR protein levels entry in data set [7] is recorded as “did not affect androgen receptor protein levels; also recorded: did not result in altered AR protein levels; also recorded: not significantly altered”. For the same compound, in [11] (200 mg/kg daily by gavage for 10 days, autopsy day 11), the “gross changes in organs at autopsy” value is given as “No gross changes in organs”. For the same compound, the “change in animal body mass” value in data set [11] (mouse, in vivo) was “no significant change”. The compound also returned an LD50 in data set [11] (mouse, in vivo, po) above 1000 mg/kg body weight. In addition, in data set [11] (mouse, in vivo, po, 1000 mg/kg), the “change in animal behavior or body mass” value is recorded as “No significant change”. Moreover, the water solubility entry in [12] is on record as “sufficiently water soluble to permit studies in cell culture”.
Consider `C[C@]1(O)CC[C@H]2[C@@H]3CCC4=CC(=O)CCC4=C3C=C[C@@]21C` [R1881, methyltrienolone, reference compound], for which the “increase in PSA levels” value in data set [3] (0.05 nM R1881) is 3.1 fold; in data set [3] (1.0 nM R1881), 12 fold. Further, the “increase in luciferase expression” value in data set [4] (1.0 nM R1881, 24 h) was determined as 54 fold. The “increase in MMTV/LTR driven luciferase expression” value in data set [5] (1.0 nM R1881) is on record as 20 fold.
